Test system: normal human dermal fibroblasts (NHDF)
Test: Gene expression in NHDF, full transcriptome analysis with Affymetrix U219 microarray
Assay type: cell-based
Details: 10 mg/ml
Method: In the present study, the transcriptional effects (modulation of gene expression) of compounds 1, 2, 3 and 4 were evaluated on normal human dermal fibroblasts (NHDF) under basal conditions.
More specifically, the comparative analysis of the different transcriptomic profiles was performed using an Affymetrix GeneAtlas platform and the human “full transcriptome” U219 chip, which includes 36,000 transcripts and variants.
Fibroblasts were seeded in 24-well plates and cultured in culture medium for 24 hours. The medium was then replaced by assay medium and cells were incubated for further 24 hours. The medium was replaced by assay medium containing or not (control) the test compounds at different concentrations and the cells were preincubated for 24 hours. All experimental conditions were performed in triplicate. At the end of incubation, the culture supernatants were removed and the cells were washed in a phosphate buffered saline (PBS) solution and immediately frozen at −80° C.
Before RNA extraction, the replicates were pooled. Total RNA was extracted from each sample using TriPure Isolation Reagent® according to the supplier's instructions. The amount and quality of total RNA were evaluated for all samples using capillary electrophoresis (Bioanalyzer 2100, Agilent technologies). From each RNA, a labeled and amplified anti-sens RNA (aRNA) was obtained using GeneChip 3′IVT PLUS Kit (Affymetrix). For each labeled and amplified aRNA sample the profiles were evaluated before and after fragmentation using capillary electrophoresis (Bioanalyzer 2100, Agilent technologies). Hybridization of fragmented aRNA onto Affymetrix® U219 chip (36,000 transcripts and variants) was performed in the GeneAtlas™ fluidics Affymetrix® hybridization station for 20 hours at 45° C. U219 chip was analyzed using the GeneAtlas™ Imaging station (Affymetrix®—resolution 2 μm) to generate fluorescence intensity data.
Expression Console and Quality controls: data were normalized with the Expression Console (Affymetrix®) software using RMA algorithm. Then a quality control of the labeling and the hybridization was performed. Hybridization and labeling steps successfully passed the quality controls for these experiments.
Data reduction, Excel file description: once normalized with Expression Console, data were transferred into a Microsoft Excel® file in order to go further into data reduction.
Calculation and tools were added in order to rank and sort data, and finally to support data interpretation. Detection thresholds in terms of fold change were defined and applied on normalized data.
Results are considered and presented or commented per gene (and not probe). A probe set is a collection of probes designed to interrogate a given sequence of a gene. For data interpretation, the most important relative expression value obtained with one probe is considered to be representative of the corresponding gene. The file contains the following data: • Relative expression (RE) for each sample, • Fold change calculation, • Gene information.

[1] = relative expression adjusted to detection limit (<20), NHDF, 24 h
[2] = signed value, Tables 13-14, NHDF

Compound: C[C@H](NC(=O)[C@H](C)NC(=O)[C@@H](N)CCCCNCC(F)(F)[C@]1(O)O[C@H](CO)[C@H](O)[C@H](O)[C@H]1O)C(=O)O [Compound 1]
- REadj2, PCYT2 [1]: 188.93
- REadj2, PLD1 [1]: 176.07
- REadj2, PTPLA [1]: 498.96
- REadj2, SOAT1 [1]: 390.22
- REadj2, SREBF1 [1]: 519.22
- REadj2, POR (relative expression adjusted to detection limit (<20), NHDF, 24 h, probe set 11716114_x_at): 256.70
- REadj2, HMGCS1 (relative expression adjusted to detection limit (<20), NHDF, 24 h, probe set 11716987_a_at): 875.52
- REadj2, EBP (relative expression adjusted to detection limit (<20), NHDF, 24 h, probe set 11717859_a_at): 582.73
- REadj2, FDPS (relative expression adjusted to detection limit (<20), NHDF, 24 h, probe set 11718366_s_at): 2391.43
- REadj2, MVK (relative expression adjusted to detection limit (<20), NHDF, 24 h, probe set 11719098_a_at): 135.62
- REadj2, PGS1 (relative expression adjusted to detection limit (<20), NHDF, 24 h, probe set 11724792_a_at): 118.91
- REadj2, KDSR (relative expression adjusted to detection limit (<20), NHDF, 24 h, probe set 11730180_s_at): 1037.81
- REadj2, KDSR (relative expression adjusted to detection limit (<20), NHDF, 24 h, probe set 11730181_s_at): 549.40
- REadj2, GBA (relative expression adjusted to detection limit (<20), NHDF, 24 h, probe set 11736100_a_at): 445.83
- REadj2, CHKA (relative expression adjusted to detection limit (<20), NHDF, 24 h, probe set 11736285_a_at): 104.91
- REadj2, CHKA (relative expression adjusted to detection limit (<20), NHDF, 24 h, probe set 11736286_a_at): 120.28
- REadj2, PHLDB2 (relative expression adjusted to detection limit (<20), NHDF, 24 h, probe set 11737039_a_at): 119.06
- REadj2, PHLDB2 (relative expression adjusted to detection limit (<20), NHDF, 24 h, probe set 11737041_a_at): 128.19
- REadj2, PHLDB2 (relative expression adjusted to detection limit (<20), NHDF, 24 h, probe set 11737042_s_at): 120.07
- REadj2, PHLDB2 (relative expression adjusted to detection limit (<20), NHDF, 24 h, probe set 11737043_x_at): 178.68
- REadj2, NPC1 (relative expression adjusted to detection limit (<20), NHDF, 24 h, probe set 11743916_a_at): 361.48
- REadj2, FADS1///MIR1908 (relative expression adjusted to detection limit (<20), NHDF, 24 h, probe set 11745459_a_at): 1633.20
- REadj2, NPC1 (relative expression adjusted to detection limit (<20), NHDF, 24 h, probe set 11746723_a_at): 192.21
- REadj2, MVK (relative expression adjusted to detection limit (<20), NHDF, 24 h, probe set 11747747_a_at): 83.27
- REadj2, POR (relative expression adjusted to detection limit (<20), NHDF, 24 h, probe set 11748368_x_at): 269.37
- REadj2, PGS1 (relative expression adjusted to detection limit (<20), NHDF, 24 h, probe set 11748428_a_at): 84.52
- REadj2, EBP (relative expression adjusted to detection limit (<20), NHDF, 24 h, probe set 11749332_x_at): 445.85
- REadj2, GBA (relative expression adjusted to detection limit (<20), NHDF, 24 h, probe set 11750975_x_at): 439.06
- REadj2, GBA (relative expression adjusted to detection limit (<20), NHDF, 24 h, probe set 11751085_a_at): 451.06
- REadj2, GBA (relative expression adjusted to detection limit (<20), NHDF, 24 h, probe set 11751086_x_at): 338.51
- REadj2, KDSR (relative expression adjusted to detection limit (<20), NHDF, 24 h, probe set 11751627_a_at): 533.05
- REadj2, FADS1///MIR1908 (relative expression adjusted to detection limit (<20), NHDF, 24 h, probe set 11752670_a_at): 2502.62
- REadj2, GBA (relative expression adjusted to detection limit (<20), NHDF, 24 h, probe set 11753440_x_at): 229.00
- REadj2, HMGCS1 (relative expression adjusted to detection limit (<20), NHDF, 24 h, probe set 11754918_s_at): 929.88
- REadj2, FADS1///MIR1908 (relative expression adjusted to detection limit (<20), NHDF, 24 h, probe set 11755251_x_at): 1571.10
- REadj2, FDPS (relative expression adjusted to detection limit (<20), NHDF, 24 h, probe set 11758249_s_at): 2098.38
- Fold change, ABCA1 [2]: 2.112
- Fold change, ABHD5 [2]: 2.634
- Fold change, ACAT2 [2]: 2.124
- Fold change, ACSS2 [2]: 2.288
- Fold change, ADORA2B [2]: 2.461
- Fold change, AKR1B1 [2]: 4.194
- Fold change, AKR1C1/AKR1C2 [2]: 2.597
- Fold change, ALDH1A3 [2]: −3.504
- Fold change, ANGPT1 [2]: −2.510
- Fold change, CD9 [2]: 2.337
- Fold change, CH25H [2]: −2.770
- Fold change, CHKA [2]: 2.999
- Fold change, CLN3 [2]: 2.570
- Fold change, CYP19A1 [2]: 2.736
- Fold change, CYP51A1 [2]: 2.202
- Fold change, DHCR7 [2]: 3.675
- Fold change, DHCR24 [2]: 2.267
- Fold change, EBP [2]: 2.685
- Fold change, EGR1 [2]: −2.928
- Fold change, FADS1 [2]: 4.196
- Fold change, FADS2 [2]: 2.642
- Fold change, FDPS [2]: 2.104
- Fold change, FGF2 [2]: 2.008
- Fold change, FOS [2]: −2.521
- Fold change, GBA [2]: 3.016
- Fold change, GPER1 [2]: 2.031
- Fold change, GRP [2]: −2.699
- Fold change, HMGCR [2]: 2.018
- Fold change, HMOX1 [2]: 5.168
- Fold change, HSD3B7 [2]: 2.132
- Fold change, HSD17B7 [2]: 2.443
- Fold change, HTR2B [2]: 2.118
- Fold change, IDI1 [2]: 2.013
- Fold change, IGFBP2 [2]: −2.717
- Fold change, INSIG1 [2]: 3.422
- Fold change, KDSR [2]: 2.288
- Fold change, LDLR [2]: 2.988
- Fold change, LPIN1 [2]: 2.458
- Fold change, LSS [2]: 2.527
- Fold change, MAP3K8 [2]: 3.713
- Fold change, ME1 [2]: 2.548
- Fold change, MVD [2]: 2.448
- Fold change, MVK [2]: 2.082
- Fold change, NGF [2]: −2.648
- Fold change, NPC1 [2]: 6.532
- Fold change, NRG1 [2]: −2.111
- Fold change, NSMAF [2]: 2.624
- Fold change, NTN1 [2]: 2.832
- Fold change, PCYT2 [2]: 2.412
- Fold change, PDE5A [2]: −3.902
- Fold change, PDK4 [2]: −2.280
- Fold change, PGS1 [2]: 2.410
- Fold change, PLAU [2]: −2.785
- Fold change, PLD1 [2]: 2.155
- Fold change, POR [2]: 2.200
- Fold change, PTGS1 [2]: 3.893
- Fold change, RAB27A [2]: 2.279
- Fold change, RUNX1 [2]: 2.441
- Fold change, S1PR1 [2]: 2.651
- Fold change, SCD [2]: 7.772
- Fold change, SEMA3A [2]: −3.169
- Fold change, SERINC2 [2]: 2.635
- Fold change, SLC1A3 [2]: 4.715
- Fold change, SOAT1 [2]: 2.012
- Fold change, SOCS3 [2]: 3.734
- Fold change, SREBF1 [2]: 3.237
- Fold change, ST6GALNAC5 [2]: 2.080
- Fold change, STC1 [2]: 3.016
